Results from ChEMBL document CHEMBL3045990, “Inhibition of Cathepsin D protease activity by Punica granatum fruit peel extracts, isolates, and semisynthetic analogs” (Med Chem Res, 2013).
In brackets after ≈: the same amount, converted by molar mass. Activity calls are given as the source filed them. No cut-off for these calls is given here.

Assays:
[1] = molecular target: T1, Cathepsin D (Homo sapiens, UniProt P07339); assay: Inhibition of cathepsin D (unknown origin) using hemoglobin as substrate after 30 min by spectrophotometric analysis
[2] = molecular target: T1, Cathepsin D; assay: Inhibition of cathepsin D (unknown origin) using hemoglobin as substrate at 20 ug/mL after 30 min by spectrophotometric analysis
[3] = tested on: MDA-MB-231; assay: Cytotoxicity against Homo sapiens (human) MDA-MB-231 cells assessed as growth inhibition by MTT assay; format: functional, cell-based

T1 sequence (P07339 65-162 limits assumed): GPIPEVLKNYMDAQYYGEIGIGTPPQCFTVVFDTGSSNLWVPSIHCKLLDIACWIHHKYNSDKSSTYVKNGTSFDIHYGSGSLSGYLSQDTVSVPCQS
T1 sequence (P07339 169-412 limits assumed): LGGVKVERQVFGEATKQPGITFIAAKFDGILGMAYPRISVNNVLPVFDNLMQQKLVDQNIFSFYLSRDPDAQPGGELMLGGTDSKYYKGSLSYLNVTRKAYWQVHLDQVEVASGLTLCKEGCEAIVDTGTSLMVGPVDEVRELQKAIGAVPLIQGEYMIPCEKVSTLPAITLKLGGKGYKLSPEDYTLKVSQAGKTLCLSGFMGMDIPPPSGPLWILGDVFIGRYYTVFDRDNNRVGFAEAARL

| Compound | IC50 [1] | inhibition [2] | growth inhibition (GI) [3] | IC50 ([3]; Homo sapiens, MDA-MB-231) |
| --- | --- | --- | --- | --- |
| CC[C@H](CC[C@@H](C)[C@H]1CC[C@H]2[C@@H]3CC=C4CC(=O)CC[C@]4(C)[C@H]3CC[C@]12C)C(C)C [BETA-SITOSTENONE] | 9.4 µM |  |  |  |
| C[C@H]1[C@H](C)CC[C@]2(C(N)=O)CC[C@]3(C)C(=CC[C@@H]4[C@@]5(C)CC[C@H](O)C(C)(C)[C@@H]5CC[C@]43C)[C@H]12 |  | inactive |  |  |
| C[C@H]1[C@H](C)CC[C@]2(C(=O)O)CC[C@]3(C)C(=CC[C@@H]4[C@@]5(C)CCC(=O)C(C)(C)[C@@H]5CC[C@]43C)[C@H]12 [URSONIC ACID] | 14.1 µM |  | <5% |  |
| CC[C@H](CC[C@@H](C)[C@H]1CC[C@H]2[C@@H]3CC=C4C[C@@H](OC(C)=O)CC[C@]4(C)[C@H]3CC[C@]12C)C(C)C |  | inactive |  |  |
| COC(=O)[C@]12CC[C@@H](C)[C@H](C)[C@H]1C1=CC[C@@H]3[C@@]4(C)CC[C@H](O)C(C)(C)[C@@H]4CC[C@@]3(C)[C@]1(C)CC2 [METHYL URSOLATE] | 9.45 µM |  | <5% |  |
| CC[C@H](CC[C@@H](C)[C@H]1CC[C@H]2[C@@H]3CC=C4C[C@@H](O)CC[C@]4(C)[C@H]3CC[C@]12C)C(C)C |  | inactive |  |  |
| CC(=O)O[C@H]1CC[C@]2(C)[C@H]3CC=C4[C@@H]5[C@@H](C)[C@H](C)CC[C@]5(C(=O)O)CC[C@@]4(C)[C@]3(C)CC[C@H]2C1(C)C |  | inactive |  |  |
| O=C(/C=C/C=C/c1ccc2c(c1)OCO2)N1CCCCC1 [PIPERINE] | 42.3 µM |  |  | 58.4 µg/mL (≈ 205 µM) |
| C[C@H]1[C@H](C)CC[C@]2(C(=O)O)CC[C@]3(C)C(=CC[C@@H]4[C@@]5(C)CC[C@H](O)C(C)(C)[C@@H]5CC[C@]43C)[C@H]12 [URSOLIC ACID] | 18.2 µM |  | <5% |  |
